Reference: patent publication US10457637B2, “Benzenesulfonamide derivatives as inverse agonists of retinoid-related orphan receptor gamma (RORγ(T))” (GALDERMA RESEARCH & DEVELOPMENT, priority 2014, dated 2019)
pIC50: −log10 of the molar value.

These compounds were tested against ROR gamma ligand-binding domain (hRORg) (Homo sapiens (Human), UniProt P51449) (assay: GAL4-RORγ transactivation (luciferase reporter, HG5LN HeLa line)). Details: 18 hours incubation.
Sequence of ROR gamma ligand-binding domain (hRORg) (P51449 269-508): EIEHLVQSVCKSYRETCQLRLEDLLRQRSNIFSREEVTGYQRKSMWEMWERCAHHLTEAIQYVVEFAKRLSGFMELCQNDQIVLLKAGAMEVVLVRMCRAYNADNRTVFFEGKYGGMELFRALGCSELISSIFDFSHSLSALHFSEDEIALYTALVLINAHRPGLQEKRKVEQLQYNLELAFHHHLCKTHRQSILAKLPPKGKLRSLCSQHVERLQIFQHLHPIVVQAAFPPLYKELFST
Type: cell-based
Text: GAL4-RORγ Transactivation
The RORγ transactivation model was developed from the line HG5LN, which is a HeLa line that stably expresses a luciferase reporter gene controlled by a pentamer of the GAL4 recognition domain of yeast and of a β-globin promoter. The HG5LN line was stably transfected by the DNA-binding domain (DBD) of GAL4 fused to the ROR gamma ligand-binding domain (LBD). Molecules that inhibit the ROR gamma constitutive activity reduce the luciferase expression, thus leading to a reduction in the emitted luminescence.
The cells are seeded in 384-well plates (5000 cells in 45 μL/well of culture medium containing 10% fetal calf serum) and incubated for 4 hours at 37° C., 5% CO2. 5 μL of the test molecules (compounds described in the tables described above) are then added to each well and the plates are incubated for 18 hours at a temperature of 37° C. under 5% of CO2. 20 μL of luciferase substrate (Promega) are added to each well and the luminescence emitted is read by a microplate reader.
The luminescence units (“RLU”) are normalized by positive controls (“POS” containing a saturated concentration of benzenesulfonamide, N-(2,2,2-trifluoroethyl)-N-[4-[2,2,2-trifluoro-1-hydroxy-1-(trifluoromethyl)ethyl]phenyl]) and negative controls (“NEG” containing DMSO): % inhibition=((RLU−NEG)*100)/(POS−NEG). The IC50 values are calculated from a 4-parameter logistic model using the XLFit software (IDBS).
A pIC50 of less than 6.00 was found for CCc1ccc(N(CC(C)C)S(=O)(=O)c2ccc(N3CCNCC3)c(S(C)(=N)=O)c2)cc1 (centres unmarked) [compound 140, N-(4-ethylphenyl)-N-isobutyl-3-(S-methylsulfonimidoyl)-4-(piperazin-1-yl)benzenesulfonamide] in this work. A pIC50 of less than 6.00 was found for CCc1ccc(N(CC(C)C)S(=O)(=O)c2ccc3c(c2)N(CC2CCOCC2)C(=O)C[S+]3[O-])cc1 (centres unmarked) [compound 4, 1,3-dioxo-4-(tetrahydropyran-4-ylmethyl)-1,2,3,4-tetrahydro-1λ^4-benzo[1,4]thiazine-6-sulfonic acid (4-ethylphenyl)isobutylamide] in this work. A pIC50 of less than 6.00 was found for CCc1ccc(N(CC(C)C)S(=O)(=O)c2ccc(NCc3nonc3C)c(S(C)(=N)=O)c2)cc1 (centres unmarked) [compound 88, N-(4-ethylphenyl)-N-isobutyl-4-(((4-methyl-1,2,5-oxadiazol-3-yl)methyl)amino)-3-(S-methylsulfonimidoyl)benzenesulfonamide] in this work. A pIC50 of 6.00 to 7.00 was found for CCc1ccc(N(CC(C)C)S(=O)(=O)c2ccc(NCC3CNC(=O)O3)c(S(C)(=N)=O)c2)cc1 (centres unmarked) [compound 82, N-(4-ethylphenyl)-N-isobutyl-3-(S-methylsulfonimidoyl)-4-(((2-oxooxazolidin-5-yl)methyl)amino)benzenesulfonamide] in this work. A pIC50 of less than 6.00 was found for CCc1ccc(N(CC(C)C)S(=O)(=O)c2ccc(N3CCCC4(COC4)C3)c(S(C)(=N)=O)c2)cc1 (centres unmarked) [compound 109, N-(4-ethylphenyl)-N-isobutyl-3-(S-methylsulfonimidoyl)-4-(2-oxa-6-azaspiro[3.5]nonan-6-yl)benzenesulfonamide] in this work. A pIC50 of less than 6.00 was found for CCc1ccc(N(CC(C)C)S(=O)(=O)c2ccc(OC[C@H]3CNC(=O)O3)c(S(C)(=N)=O)c2)cc1 (stereo partly drawn) [compound 79, N-(4-ethylphenyl)-N-isobutyl-3-(S-methylsulfonimidoyl)-4-(((R)-2-oxooxazolidin-5-yl)methoxy)benzenesulfonamide] in this work. A pIC50 of less than 6.00 was found for CCc1ccc(N(CC(C)C)S(=O)(=O)c2ccc(OCC(O)CO)c(S(C)(=N)=O)c2)cc1 (centres unmarked) [compound 40, 4-(2,3-dihydroxypropoxy)-N-(4-ethylphenyl)-N-isobutyl-3-(S-methylsulfonimidoyl)benzenesulfonamide] in this work. A pIC50 of less than 6.00 was found for CCc1ccc(N(CC(C)C)S(=O)(=O)c2ccc(OCC3CCN(C(C)=O)CC3)c(S(C)(=N)=O)c2)cc1 (centres unmarked) [compound 50, 4-((1-acetylpiperidin-4-yl)methoxy)-N-(4-ethylphenyl)-N-isobutyl-3-(S-methylsulfonimidoyl)benzenesulfonamide] in this work. A pIC50 of 6.00 to 7.00 was found for CCc1ccc(N(CC(C)C)S(=O)(=O)c2ccc(N3CCC4(CC3)COC4)c(S(C)(=N)=O)c2)cc1 (centres unmarked) [compound 114, N-(4-ethylphenyl)-N-isobutyl-3-(S-methylsulfonimidoyl)-4-(2-oxa-7-azaspiro[3.5]nonan-7-yl)benzenesulfonamide] in this work. A pIC50 of less than 6.00 was found for CCc1ccc(N(CC(C)C)S(=O)(=O)c2ccc(OCc3cc(C)nc(C)c3)c(S(C)(=N)=O)c2)cc1 (centres unmarked) [compound 43, 4-((2,6-dimethylpyridin-4-yl)methoxy)-N-(4-ethylphenyl)-N-isobutyl-3-(S-methylsulfonimidoyl)benzenesulfonamide] in this work. A pIC50 of less than 6.00 was found for CCc1ccc(N(CC(C)C)S(=O)(=O)c2ccc(OCC3(F)COC3)c(S(C)(=N)=O)c2)cc1 (centres unmarked) [compound 32, N-(4-eethylphenyl)-4-((3-fluorooxetan-3-yl)methoxy)-N-isobutyl-3-(S-methylsulfonimidoyl)benzenesulfonamide] in this work. A pIC50 of less than 6.00 was found for CCc1ccc(N(CC(C)C)S(=O)(=O)c2ccc(N3CC4(CNC4)C3)c(S(C)(=N)=O)c2)cc1 (centres unmarked) [compound 121, -(4-ethylphenyl)-N-isobutyl-3-(S-methylsulfonimidoyl)-4-(2,6-diazaspiro[3.3]heptan-2-yl)benzenesulfonamide] in this work. A pIC50 of less than 6.00 was found for CCc1ccc(N(CC(C)C)S(=O)(=O)c2ccc3c(c2)[S+]([O-])CCN3CC2CCOCC2)cc1 (centres unmarked) [compound 71, 1-oxo-4-(tetrahydropyran-4-ylmethyl)-1,2,3,4-tetrahydro-1λ^4-benzo[1,4]thiazine-7-sulfonic acid (4-ethylphenyl)isobutylamide] in this work. A pIC50 of less than 6.00 was found for CCc1ccc(N(CC(C)C)S(=O)(=O)c2ccc3c(c2)NCCS3)cc1 [compound 9, 3,4-dihydro-2H-benzo[1,4]thiazine-6-sulfonic acid (4-ethylphenyl)isobutylamide] in this work. A pIC50 of 6.00 to 7.00 was found for CCc1ccc(N(CC(C)C)S(=O)(=O)c2ccc(NC3CCS(=O)(=O)C3)c(S(C)(=N)=O)c2)cc1 (centres unmarked) [compound 86, 4-((1,1-dioxidotetrahydrothiophen-3-yl)amino)-N-(4-ethylphenyl)-N-isobuytl-3-(S-methylsulfonimidoyl)benzenesulfonamide] in this work. A pIC50 of 6.00 to 7.00 was found for CCc1ccc(N(CC(C)C)S(=O)(=O)c2ccc(N3CC4(C3)CS(=O)(=O)C4)c(S(C)(=N)=O)c2)cc1 (centres unmarked) [compound 113, 4-(2,2-dioxido-2-thia-6-azaspiro[3.3]heptan-6-yl)-N-(4-ethylphenyl)-N-isobutyl-3-(S-methylsulfonimidoyl)benzenesulfonamide] in this work. A pIC50 of 6.00 to 7.00 was found for CCc1ccc(N(CC(C)C)S(=O)(=O)c2ccc(N3CCCOCC3)c(S(C)(=N)=O)c2)cc1 (centres unmarked) [compound 137, N-(4-ethylphenyl)-N-isobutyl-3-(S-methylsulfonimidoyl)-4-(1,4-oxazepan-4-yl)benzenesulfonamide] in this work. A pIC50 of less than 6.00 was found for CCc1ccc(N(CC(C)C)S(=O)(=O)c2ccc(OCCc3ccno3)c(S(C)(=N)=O)c2)cc1 (centres unmarked) [compound 38, N-(4-ethylphenyl)-N-isobutyl-4-(2-(isoxazol-5-yl)ethoxy)-3-(S-methylsulfonimidoyl)benzenesulfonamide] in this work. A pIC50 of less than 6.00 was found for CCc1ccc(N(CC(C)C)S(=O)(=O)c2ccc(OCC3CCN(C(=O)OC(C)(C)C)CC3)c(S(C)(=N)=O)c2)cc1 (centres unmarked) [compound 36, tert-butyl 4-((4-(N-(4-ethylphenyl)-N-isobutylsulfamoyl)-2-(S-methylsulfonimidoyl)phenoxy)methyl)piperidine-1-carboxylate] in this work. A pIC50 of less than 6.00 was found for CCc1ccc(N(CC(C)C)S(=O)(=O)c2ccc3c(c2)SC(C)(C)N3CC2CCOCC2)cc1 [compound 73, 2,2-dimethyl-3-(tetrahydropyran-4-ylmethyl)-2,3-dihydrobenzothiazole-6-sulfonic acid (4-ethylphenyl)isobutylamide] in this work. A pIC50 of 6.00 to 7.00 was found for CCc1ccc(N(CC(C)C)S(=O)(=O)c2ccc(NCC3CCS(=O)(=O)C3)c(S(C)(=N)=O)c2)cc1 (centres unmarked) [compound 56, 4-(((1,1-dioxidotetrahydrothiophen-3-yl)methyl)amino)-N-(4-ethylphenyl)-N-isobutyl-3-(S-methylsulfonimidoyl)benzenesulfonamide] in this work. A pIC50 of less than 6.00 was found for CCc1ccc(N(CC(C)C)S(=O)(=O)c2ccc3c(c2)[S+]([O-])CN3CC2CCOCC2)cc1 (centres unmarked) [compound 75, 1-oxo-3-(tetrahydropyran-4-ylmethyl)-2,3-dihydro-1H-1λ^4-benzothiazole-6-sulfonic acid (4-ethylphenyl)isobutylamide] in this work. A pIC50 of less than 6.00 was found for CCc1ccc(N(CC(C)C)S(=O)(=O)c2ccc(NCC3(CC)COC3)c(S(C)(=N)=O)c2)cc1 (centres unmarked) [compound 126, 4-(((3-ethyloxetan-3-yl)methyl)amino)-N-(4-ethylphenyl)-N-isobutyl-3-(S-methylsulfonimidoyl)benzenesulfonamide] in this work. A pIC50 of less than 6.00 was found for CCc1ccc(N(CC(C)C)S(=O)(=O)c2ccc(OCc3ccnc(OC)c3)c(S(C)(=N)=O)c2)cc1 (centres unmarked) [compound 77, N-(4-ethylphenyl)-N-isobutyl-4-((2-methoxypyridin-4-yl)methoxy)-3-(S-methylsulfonimidoyl)benzenesulfonamide] in this work. A pIC50 of less than 6.00 was found for CCc1ccc(N(CC(C)C)S(=O)(=O)c2ccc(OCC3CCNCC3)c(S(C)(=N)=O)c2)cc1 (centres unmarked) [compound 49, N-(4-ethylphenyl)-N-isobutyl-3-(S-methylsulfonimidoyl)-4-(piperidin-4-ylmethoxy)benzenesulfonamide] in this work. A pIC50 of less than 6.00 was found for CCc1ccc(N(CC(C)C)S(=O)(=O)c2ccc([S+]([O-])CC3CCOCC3)c(C(=O)OC)c2)cc1 (centres unmarked) [compound 16, methyl 5-[(4-ethylphenyl)isobutylsulfamoyl]-2-(tetrahydropyran-4-ylmethanesulfinyl)benzoate] in this work. A pIC50 of 6.00 to 7.00 was found for CCc1ccc(N(CC(C)C)S(=O)(=O)c2ccc(N3C[C@H]4C[C@@H]3CO4)c(S(C)(=N)=O)c2)cc1 (stereo partly drawn) [compound 115, 4-((1R,4R)-2-oxa-5-azabicyclo[2.2.1]heptan-5-yl)-N-(4-ethylphenyl)-N-isobutyl-3-(S-methylsulfonimidoyl)benzenesulfonamide] in this work. A pIC50 of less than 6.00 was found for CCc1ccc(N(CC(C)C)S(=O)(=O)c2ccc(OCc3ccc(F)cc3F)c(S(C)(=N)=O)c2)cc1 (centres unmarked) [compound 45, 4-((2,4-difluorobenzyl)oxy)-N-(4-ethylphenyl)-N-isobutyl-3-(S-methylsulfonimidoyl)benzenesulfonamide] in this work. A pIC50 of 6.00 to 7.00 was found for CCc1ccc(N(CC(C)C)S(=O)(=O)c2ccc(NCC3CC4(COC4)C3)c(S(C)(=N)=O)c2)cc1 (centres unmarked) [compound 95, 4-(((2-oxaspiro[3.3]heptan-6-yl)methyl)amino)-N-(4-ethylphenyl)-N-isobutyl-3-(S-methylsulfonimidoyl)benzenesulfonamide] in this work.
